# Assays:
# [1] = system: volatile organic compounds (VOCs); assay: SPME-GC-MS of volatile organic compounds (VOCs) in saliva fermentation; format: cell-based, halitosis subjects (saliva)
# Protocol: Fresh saliva was collected from 10 halitosis subjects (Halimeter index >120). Subjects were required not to consume any food or drink for 2 hours before donating saliva. Saliva was directly spat into a saliva collection tube, 5 ml per person, and mixed. The mixture was centrifuged at 4500 rpm for 10 minutes, and the supernatant was collected, aliquoted, and stored at -80°C for subsequent experimental studies.
# (§1) Lysate group: In a headspace vial, 100 µl of saliva was added first, followed by separate addition of ET-22 viable bacteria (1.0×10^9 CFU/ml), ET-22 heat-inactivated bacterial cells (obtained by inactivating viable bacteria at 1.0×10^9 CFU/ml), and lysate (obtained by inactivating and then filtering viable bacteria at 1.0×10^9 CFU/ml), each at 100µl. Then, 800 µl of SHI medium was added. After filling with nitrogen, anaerobic cultivation was performed for 10 hours for loading on machine, and then SPME-GC-MS was used to test the change in content of volatile organic compound.
# as §1, with “NAD group:” for “Lysate group:”, “by the” for “by”, “by heat-inactivating” for “by inactivating”, “and NAD (100 µg/ml),” for “and lysate (obtained by inactivating and then filtering viable bacteria at 1.0×10^9 CFU/ml),”, “machine,” for “machine, and”, “the changes” for “the change”
# 2-hydroxy-3-phenylpropionic acid group: In a headspace vial, 100 µl of saliva was added first, followed by the separate addition of ET-22 viable bacteria (1.0×10^9 CFU/ml), ET-22 heat-inactivated bacterial cells (obtained by heat-inactivating viable bacteria at 1.0×10^9 CFU/ml), and 2-hydroxy-3-phenylpropionic acid (100 µg/ml), each at 100µl. […]
# Helium was used as a carrier gas, with a rate remaining at 1.1 mL min-1. […] The flavor characteristic of each compound was determined based on data from the Good Scents Company Information System (http://www.thegoodscentscompany.com).
# multi-species biofilm = assay: biomass of multi-species biofilm, crystal violet staining; format: cell-based, halitosis subjects (saliva)
# Protocol: The association between biofilm biomass and halitosis degree were analyzed by evaluating biofilm formation under intervention with ET-22 viable bacteria, heat-inactivated bacteria, lysate, NAD, 2-hydroxy-3-phenylpropionic acid and peptidoglycan. Test method included the following.
# (§2) Lysate Group: 10 µl of saliva was added to a 96-well plate, followed by separate addition of ET-22 viable bacteria (1.0×10^9 CFU/ml), ET-22 heat-inactivated bacterial cells (obtained by inactivating viable bacteria at 1.0×10^9 CFU/ml), and lysate (obtained by inactivating and filtering viable bacteria at 1.0×10^9 CFU/ml), each at 100 µl. Then, 80 µl of SHI medium was added. The plate was placed in an anaerobic box and cultured anaerobically at 37°C for 10 hours. Six replicates were set for each group.
# as §2, with “NAD” for “Lysate”, “heat-inactivating” for “inactivating”, “NAD (100 µg/ml),” for “lysate (obtained by inactivating and filtering viable bacteria at 1.0×10^9 CFU/ml),”, “group. […]” for “group.”
# (5) The well plate was placed in a microplate reader and the biofilm biomass was measured at 600 nm.
structure (smiles),measurement,setting,value
O=C(O)C(O)Cc1ccccc1 (centres unmarked) [2-hydroxy-3-phenylpropionic acid],number of flavor-active acid compounds,"[1]; among 71 aroma-active VOCs, 100 µg/ml",significantly decreases
same,number of flavor-active ester compounds,"[1]; among 71 aroma-active VOCs, pure components 100 µg/ml, others from 1.0×10^9 CFU/ml",significantly decreases
same,number of alkane compounds (VOCs),"[1]; pure components 100 µg/ml, peptidoglycan from 1.0×10^9 CFU/ml, 10 hours",significantly decreases
same,biofilm biomass,"multi-species biofilm; compared with CK group, optical density, pure components 100 µg/ml, others from 1.0×10^9 CFU/ml, 37°C 10 hours",significant decrease
same,intervention effect on the biofilm biomass,multi-species biofilm; relative to ET-22 viable bacteria and heat-inactivated bacteria,better

# Reference: patent EP4772186A1, “USE AND COMPOSITION OF POSTBIOTIC OF LACTOBACILLUS PARACASEI ET-22” (Inner Mongolia Yili Industrial Group Co., Ltd., priority 2023, dated 2025)
